According to patent US6794386B2, “β-amino acid compounds as integrin antagonists” (Bayer Aktiengesellschaft, priority 2000, dated 2004):
Where two headings read alike, the source gives them in different places.

Molecular target: T1, VLA-4 (Homo sapiens, UniProt P05556+P13612)
T1 construct: host or cells: Jurkat clone E6-1
Assay: Adhesion of Jurkat cells to immobilized VCAM-1 (domains 1-3)
Assay type: cell-based
Parameters: scale not given here
Conditions: adhesion of CFSE-labeled Jurkat cells to recombinant human VCAM-1 (domains 1-3) coated plates, compounds as yielded by solid phase synthesis, purity about 40-90%
Outline: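 CFSE-labelled Jurkat E6-1 cells in Tris buffer pH 7.4 with 2 mM MnCl2 were added to wells coated with insect-cell-expressed human VCAM-1 domains 1-3 (0.5 μg/ml coating solution); labelled cells were incubated for 30 min at 37 °C with the VLA-4 inhibitor.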

T1 sequence (P13612 34-1032): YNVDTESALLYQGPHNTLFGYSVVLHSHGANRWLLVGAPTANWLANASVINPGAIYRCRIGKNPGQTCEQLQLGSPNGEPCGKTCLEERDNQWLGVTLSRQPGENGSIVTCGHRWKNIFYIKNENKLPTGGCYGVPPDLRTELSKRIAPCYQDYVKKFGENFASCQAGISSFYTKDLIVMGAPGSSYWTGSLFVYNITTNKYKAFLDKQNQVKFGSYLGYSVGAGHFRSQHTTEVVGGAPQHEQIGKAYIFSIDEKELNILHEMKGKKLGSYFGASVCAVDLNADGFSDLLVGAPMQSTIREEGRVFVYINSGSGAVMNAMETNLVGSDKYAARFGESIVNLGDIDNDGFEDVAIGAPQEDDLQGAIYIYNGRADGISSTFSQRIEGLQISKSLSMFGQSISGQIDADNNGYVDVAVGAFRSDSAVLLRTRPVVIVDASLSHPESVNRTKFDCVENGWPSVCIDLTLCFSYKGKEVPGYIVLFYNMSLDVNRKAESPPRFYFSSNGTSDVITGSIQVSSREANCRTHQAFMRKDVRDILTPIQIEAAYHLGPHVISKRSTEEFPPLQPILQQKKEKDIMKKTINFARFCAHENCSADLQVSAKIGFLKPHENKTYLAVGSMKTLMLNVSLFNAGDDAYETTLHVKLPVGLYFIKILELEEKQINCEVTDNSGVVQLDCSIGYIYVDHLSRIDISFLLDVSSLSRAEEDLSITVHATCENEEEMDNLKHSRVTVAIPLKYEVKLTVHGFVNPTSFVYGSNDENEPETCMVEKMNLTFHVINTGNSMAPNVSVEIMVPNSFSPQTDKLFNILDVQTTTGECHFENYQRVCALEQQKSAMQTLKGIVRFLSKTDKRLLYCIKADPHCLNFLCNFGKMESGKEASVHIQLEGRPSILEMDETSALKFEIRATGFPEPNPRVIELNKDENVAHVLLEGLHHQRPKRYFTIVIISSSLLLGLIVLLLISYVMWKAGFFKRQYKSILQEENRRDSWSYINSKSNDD
T1 sequence (P05556 21-798): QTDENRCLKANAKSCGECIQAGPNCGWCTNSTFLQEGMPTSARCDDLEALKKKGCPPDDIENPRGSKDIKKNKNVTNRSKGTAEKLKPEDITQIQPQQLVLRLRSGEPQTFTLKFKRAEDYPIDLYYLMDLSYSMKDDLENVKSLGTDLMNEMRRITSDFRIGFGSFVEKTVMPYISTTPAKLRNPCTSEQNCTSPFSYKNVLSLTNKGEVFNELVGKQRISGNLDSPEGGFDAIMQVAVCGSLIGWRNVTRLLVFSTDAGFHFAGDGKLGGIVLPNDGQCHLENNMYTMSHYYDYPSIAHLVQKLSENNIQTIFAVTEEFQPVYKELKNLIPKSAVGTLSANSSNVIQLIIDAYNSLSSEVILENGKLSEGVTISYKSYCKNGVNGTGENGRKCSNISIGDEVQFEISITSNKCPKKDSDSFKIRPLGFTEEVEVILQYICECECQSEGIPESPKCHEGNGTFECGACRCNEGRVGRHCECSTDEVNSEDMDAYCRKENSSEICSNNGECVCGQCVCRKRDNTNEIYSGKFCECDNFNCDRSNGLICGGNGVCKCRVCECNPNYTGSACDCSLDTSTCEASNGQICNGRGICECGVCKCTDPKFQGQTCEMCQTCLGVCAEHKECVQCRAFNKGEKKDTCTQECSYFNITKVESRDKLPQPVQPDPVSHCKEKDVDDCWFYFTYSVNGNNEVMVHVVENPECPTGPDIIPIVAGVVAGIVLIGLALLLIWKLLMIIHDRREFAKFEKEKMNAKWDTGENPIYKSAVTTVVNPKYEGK

IC50 | IC50 (read-out: IC50) [nM] | Structure (SMILES)
C-D |  | Cc1ccccc1-c1ccc(C[C@H](NC(=O)C2CCCN(S(=O)(=O)c3cc(Cl)cc(Cl)c3)C2)C(=O)O)cc1 (stereo partly shown) [Example 1.92]
 | 500 to 2000 | O=C(N[C@@H](Cc1ccc(NC(=O)N2CCOCC2)cc1)C(=O)O)C1CCCN(C(=O)Cc2ccccc2)C1 (stereo partly shown) [Example 4.21]
C-D |  | Cc1ccc(-c2ccc(C[C@H](NC(=O)C3CCCN(C(=O)c4ccccc4Cl)C3)C(=O)O)cc2)cc1 (stereo partly drawn) [Example 1.2, (2S)-2-({[1-(2-chlorobenzoyl)-3-piperidinyl]carbonyl}amino)-3-(4′-methyl[1,1′-biphenyl]-4-yl)propanoic acid]
 | 2000 to 10000 | CN1CCN(C(=O)Nc2ccc(C[C@H](NC(=O)C3CCCN(c4ncnc(N5CCN(c6ccccc6)CC5)c4F)C3)C(=O)O)cc2)CC1 (stereo partly shown) [Example 5.14]
C-D |  | COC(=O)c1ccccc1S(=O)(=O)N1CCCC(C(=O)N[C@@H](Cc2ccc(-c3ccc(C)cc3)cc2)C(=O)O)C1 (stereo partly shown) [Example 1.67]
C-D |  | COc1ccc(-c2ccc(C[C@H](NC(=O)C3CCCN(c4ncnc(NCc5ccccn5)c4F)C3)C(=O)O)cc2)cc1 (stereo partly shown) [Example 2.14]
 | 2000 to 10000 | O=C(N[C@@H](Cc1ccc(NC(=O)N2CCN(c3ccccc3)CC2)cc1)C(=O)O)C1CCCN(c2ncnc(NCCc3c[nH]cn3)c2F)C1 (stereo partly shown) [Example 5.6]
C-D |  | O=C(N[C@@H](Cc1ccc(-c2ccc(Cl)cc2Cl)cc1)C(=O)O)C1CCCN(S(=O)(=O)c2ccccc2C(F)(F)F)C1 (stereo partly shown) [Example 1.99]
C-D |  | Cc1ccc(-c2ccc(C[C@H](NC(=O)C3CCCN(C(=O)c4cccc(Cl)c4)C3)C(=O)O)cc2)cc1 (stereo partly shown) [Example 1.18]
 | 500 to 2000 | CN1CCN(C(=O)Nc2ccc(C[C@H](NC(=O)C3CCCN(c4ncnc(NCC(c5ccccc5)c5ccccc5)c4F)C3)C(=O)O)cc2)CC1 (stereo partly shown) [Example 5.18]
C-D |  | Cc1ccccc1-c1ccc(C[C@H](NC(=O)C2CCCN(C(=O)c3ccc4c(c3)OCO4)C2)C(=O)O)cc1 (stereo partly shown) [Example 1.33]
 | 2000 to 10000 | COc1ccccc1-c1ccc(C[C@H](NC(=O)C2CCCN(c3ncnc(NCCc4c[nH]cn4)c3F)C2)C(=O)O)cc1 (stereo partly shown) [Example 5.3]
C-D |  | Cc1ccc(-c2ccc(C[C@H](NC(=O)C3CCCN(c4ncnc(NC5CCCCC5)c4F)C3)C(=O)O)cc2)cc1 (stereo partly shown) [Example 2.5]
C-D |  | COc1ccc(-c2ccc(C[C@H](NC(=O)C3CCCN(c4ncnc(N5CCNCC5)c4F)C3)C(=O)O)cc2)cc1 (stereo partly shown) [Example 2.19]
C-D |  | COc1ccc(S(=O)(=O)N2CCCC(C(=O)N[C@@H](Cc3ccc(-c4ccccc4)cc3)C(=O)O)C2)cc1OC (stereo partly shown) [Example 1.60]
 | 500 to 2000 | CN(c1ncnc(N2CCCC(C(=O)N[C@@H](Cc3ccc(NC(=O)N4CCc5ccccc5C4)cc3)C(=O)O)C2)c1F)C1CCCCC1 (stereo partly shown) [Example 5.38]
 | 500 to 2000 | O=C(N[C@@H](Cc1ccc(NC(=O)N2CCN(c3ccccc3)CC2)cc1)C(=O)O)C1CCCN(c2ncnc(NCc3ccncc3)c2F)C1 (stereo partly shown) [Example 5.37]
 | 500 to 2000 | O=C(N[C@@H](Cc1ccc(NC(=O)N2CCOCC2)cc1)C(=O)O)C1CCCN(c2ncnc(NCc3cccnc3)c2F)C1 (stereo partly shown) [Example 5.28]
C-D |  | O=C(N[C@@H](Cc1ccc(-c2ccccc2)cc1)C(=O)O)C1CCCN(C(=O)c2ccccc2Cl)C1 (stereo partly shown) [Example 1.13]
C-D |  | CCCNc1ncnc(N2CCCC(C(=O)N[C@@H](Cc3ccc(-c4ccc(C)cc4)cc3)C(=O)O)C2)c1F (stereo partly shown) [Example 2.10]

IC50 | IC50 (read-out: IC50) [nM] | Structure (SMILES)
C-D |  | CCCNc1ncnc(N2CCCC(C(=O)N[C@@H](Cc3ccc(-c4cc(Cl)ccc4Cl)cc3)C(=O)O)C2)c1F (stereo partly shown) [Example 2.37]
 | 2000 to 10000 | COc1ccc(S(=O)(=O)N2CCCC(C(=O)N[C@@H](Cc3ccc(NC(=O)NC4CCN(Cc5ccccc5)CC4)cc3)C(=O)O)C2)cc1OC (stereo partly shown) [Example 4.40]
C-D |  | COc1ccccc1-c1ccc(C[C@H](NC(=O)C2CCCN(c3ncnc(N4CCCCC4)c3F)C2)C(=O)O)cc1 (stereo partly shown) [Example 2.52]
 | 2000 to 10000 | CN1CCN(C(=O)Nc2ccc(C[C@H](NC(=O)C3CCCN(c4ncnc(N5CCCC5)c4F)C3)C(=O)O)cc2)CC1 (stereo partly shown) [Example 5.13]
C-D |  | O=C(N[C@@H](Cc1ccc(-c2ccc(Cl)c(Cl)c2)cc1)C(=O)O)C1CCCN(c2ncnc(NC3CCCCC3)c2F)C1 (stereo partly shown) [Example 2.42]
 | 2000 to 10000 | O=C(NCC(c1ccccc1)c1ccccc1)Nc1ccc(C[C@H](NC(=O)C2CCCN(S(=O)(=O)c3cccs3)C2)C(=O)O)cc1 (stereo partly shown) [Example 4.36]
 | ≤ 500 | COc1ccccc1C(=O)N1CCCC(C(=O)N[C@@H](Cc2ccc(NC(=O)N3CCOCC3)cc2)C(=O)O)C1 (stereo partly shown) [Example 4.22]
 | 500 to 2000 | COc1ccccc1-c1ccc(C[C@H](NC(=O)C2CCCN(c3ncnc(N)c3F)C2)C(=O)O)cc1 (stereo partly shown) [Example 5.4]
C-D |  | O=C(N[C@@H](Cc1ccc(-c2ccccc2)cc1)C(=O)O)C1CCCN(S(=O)(=O)c2ccc3ccccc3c2)C1 (stereo partly shown) [Example 1.58]
 | ≤ 500 | CCCNc1ncnc(N2CCCC(C(=O)N[C@@H](Cc3ccc(-c4ccccc4OC)cc3)C(=O)O)C2)c1F (stereo partly shown) [Example 2.55]
 | ≤ 500 | COc1ccccc1C(=O)N1CCCC(C(=O)N[C@@H](Cc2ccc(-c3cc(Cl)ccc3Cl)cc2)C(=O)O)C1 (stereo partly drawn) [Example 1.1, (2S)-3-(2′,5′-dichloro[1,1′-biphenyl]-4-yl)-2-({[1-(2-methoxybenzoyl)-3-piperidinyl]carbonyl}amino)propanoic acid]
C-D |  | O=C(N[C@@H](Cc1ccc(-c2cc(Cl)ccc2Cl)cc1)C(=O)O)C1CCCN(C(=O)Cc2ccccc2)C1 (stereo partly shown) [Example 1.49]
C-D |  | COc1ccc(Cl)cc1S(=O)(=O)N1CCCC(C(=O)N[C@@H](Cc2ccc(-c3ccc(Cl)cc3Cl)cc2)C(=O)O)C1 (stereo partly shown) [Example 1.100]
 | 500 to 2000 | COc1ccc(-c2ccc(C[C@H](NC(=O)C3CCCN(C(=O)c4ccccc4Cl)C3)C(=O)O)cc2)cc1 (stereo partly shown) [Example 1.26]
C-D |  | O=C(N[C@@H](Cc1ccc(-c2ccccc2)cc1)C(=O)O)C1CCCN(C(=O)C2CCCCC2)C1 (stereo partly shown) [Example 1.11]
C-D |  | Cc1ccccc1-c1ccc(C[C@H](NC(=O)C2CCCN(c3ncnc(N4CCNCC4)c3F)C2)C(=O)O)cc1 (stereo partly shown) [Example 2.29]
C-D |  | CCCCN(C)c1ncnc(N2CCCC(C(=O)N[C@@H](Cc3ccc(-c4ccccc4C)cc3)C(=O)O)C2)c1F (stereo partly shown) [Example 2.33]
 | 500 to 2000 | O=C(N[C@@H](Cc1ccc(NC(=O)N2CCN(c3ccccc3)CC2)cc1)C(=O)O)C1CCCN(c2ncnc(NCC(c3ccccc3)c3ccccc3)c2F)C1 (stereo partly shown) [Example 5.19]
 | 500 to 2000 | O=C(N[C@@H](Cc1ccc(NC(=O)N2CCN(c3ccccc3)CC2)cc1)C(=O)O)C1CCCN(c2ncnc(N3CCSCC3)c2F)C1 (stereo partly shown) [Example 5.17]
 | ≤ 500 | O=C(N[C@@H](Cc1ccc(NC(=O)N2CCOCC2)cc1)C(=O)O)C1CCCN(S(=O)(=O)c2cc(Cl)cc(Cl)c2)C1 (stereo partly shown) [Example 4.29]

IC50 | IC50 (read-out: IC50) [nM] | Structure (SMILES)
C-D |  | O=C(N[C@@H](Cc1ccc(-c2ccccc2)cc1)C(=O)O)C1CCCN(S(=O)(=O)Cc2ccccc2)C1 (stereo partly shown) [Example 1.63]
C-D |  | O=C(N[C@@H](Cc1ccc(-c2ccc(Cl)c(Cl)c2)cc1)C(=O)O)C1CCCN(c2ncnc(N3CCCCC3)c2F)C1 (stereo partly shown) [Example 2.43]
C-D |  | Cc1cc(C)c(OC(=O)N2CCCC(C(=O)N[C@@H](Cc3ccc(-c4ccccc4)cc3)C(=O)O)C2)c(C)c1 (stereo partly shown) [Example 1.15]
 | 2000 to 10000 | O=C(N[C@H](Cc1ccc(NC(=O)N2CCc3ccccc3C2)cc1)C(=O)O)C1CCCN(C(=O)c2ccc(OC(F)(F)F)cc2)C1 (stereo partly shown) [Example 4.20]
C-D |  | Cc1ccccc1-c1ccc(C[C@H](NC(=O)C2CCCN(C(=O)Cc3ccccc3)C2)C(=O)O)cc1 (stereo partly shown) [Example 1.30]
 | 500 to 2000 | CN1CCN(C(=O)Nc2ccc(C[C@H](NC(=O)C3CCCN(c4ncnc(NCCc5ccccc5)c4F)C3)C(=O)O)cc2)CC1 (stereo partly shown) [Example 5.25]
C-D |  | Cc1ccccc1-c1ccc(C[C@H](NC(=O)C2CCCN(C(=O)c3ccccc3Cl)C2)C(=O)O)cc1 (stereo partly shown) [Example 1.36]
C-D |  | O=C(N[C@@H](Cc1ccc(-c2cc(Cl)ccc2Cl)cc1)C(=O)O)C1CCCN(C(=O)c2ccc3c(c2)OCO3)C1 (stereo partly shown) [Example 1.52]
C-D |  | COc1ccc(Cl)cc1S(=O)(=O)N1CCCC(C(=O)N[C@@H](Cc2ccc(-c3ccccc3C)cc2)C(=O)O)C1 (stereo partly shown) [Example 1.90]
C-D |  | O=C(N[C@@H](Cc1ccc(-c2ccccc2)cc1)C(=O)O)C1CCCN(S(=O)(=O)c2ccccc2C(F)(F)F)C1 (stereo partly shown) [Example 1.61]
 | ≤ 500 | COc1ccc(S(=O)(=O)N2CCCC(C(=O)N[C@@H](Cc3ccc(NC(=O)N4CCN(C)CC4)cc3)C(=O)O)C2)cc1OC (stereo partly shown) [Example 4.6]
 | ≤ 500 | O=C(N[C@@H](Cc1ccc(NC(=O)N2CCOCC2)cc1)C(=O)O)C1CCCN(S(=O)(=O)c2ccc3ccccc3c2)C1 (stereo partly shown) [Example 4.30]
C-D |  | COc1ccc(-c2ccc(C[C@H](NC(=O)C3CCCN(S(=O)(=O)c4ccc(C)cc4)C3)C(=O)O)cc2)cc1 (stereo partly shown) [Example 1.76]
 | ≤ 500 | Cc1ccc(S(=O)(=O)N2CCCC(C(=O)N[C@@H](Cc3ccc(NC(=O)N4CCN(c5ccccc5)CC4)cc3)C(=O)O)C2)cc1 (stereo partly shown) [Example 4.46]
C-D |  | COc1ccc(-c2ccc(C[C@H](NC(=O)C3CCCN(c4ncnc(NC5CCCCC5)c4F)C3)C(=O)O)cc2)cc1 (stereo partly shown) [Example 2.15]
 | ≤ 500 | O=C(N[C@@H](Cc1ccc(NC(=O)N2CCOCC2)cc1)C(=O)O)C1CCCN(c2ncnc(NCC3CCCCC3)c2F)C1 (stereo partly shown) [Example 5.35]
C-D |  | COc1ccc(-c2ccc(C[C@H](NC(=O)C3CCCN(S(=O)(=O)c4c(Cl)cccc4Cl)C3)C(=O)O)cc2)cc1 (stereo partly shown) [Example 1.79]
C-D |  | Cc1ccccc1-c1ccc(C[C@H](NC(=O)C2CCCN(c3ncnc(N4CCOCC4)c3F)C2)C(=O)O)cc1 (stereo partly shown) [Example 2.27]
